Tests used:
[1] = biological target: human NK1 receptor (Homo sapiens (Human), UniProt P25103); experiment: Human NK1 receptor binding assay: radioligand (125I-Bolton-Hunter-SP) binding inhibition using receptor from human lymphoblast cells (IM-9)
Experimental: 42, p. […] The receptor was prepared from human lymphoblast cells (IM-9).

[2] = biological target: human NK2 (hNK2) receptor (Homo sapiens (Human), UniProt P21452); experiment: Human NK2 receptor binding assay: radioligand ([125I]-NK-A) binding inhibition using membrane fraction of CHO cells expressing hNK2 receptor; conditions: CHO cell membrane fraction
Experimental: CHO cells expressing hNK2 receptor were cultured in a HAM-F12 medium containing 400 μg/mL geneticin, 100 U/mL penicillin, 100 μg/mL streptomycin and 10% inactivated serum. The medium was removed, the adhered cells were washed with PBS, and PBS containing 5 mM EDTA was added to detach the cells from the flask. The cells were collected by centrifugation, suspended in suspension buffer A (15 mM Tris-HCl (pH 7.5), 2 mM MgCl2, 0.3 mM ethylenediaminetetraacetic acid (EDTA), 1 mM O,O′-bis(2-aminoethyl)ethyleneglycol-N,N,N′,N′-tetraacetic acid (EGTA)), disrupted by a Polytron homogenizer (Kinematika), and centrifuged at 800×g for 10 min. The supernatant was recovered and ultracentrifuged at 100,000×g for 25 min.
Measurement buffer (50 mM Tris-HCl (pH 7.4), 0.02% bovine serum albumin, 2 μg/mL chymostatin, 40 μg/mL bacitracin, 40 μg/mL APMSF, 3 mM MnCl2) (50 μL) was added to a 96-well microassay plate. The membrane reference standard (20 μg/mL) suspended in a measurement buffer was added by 50 μL.
After reaction at 25° C. for 30 min, the reaction was quenched using a cell harvester (PerkinElmer) by rapid filtration on a GF/C filter plate, and the cells were washed 5 times with 250 μL of a 50 mM Tris-HCl buffer (pH 7.4) containing 0.02% bovine serum albumin. The GF/C filter plate was dried, MicroScinti-0 (PerkinElmer) was added by 20 μL, and the radioactivity was measured on a TopCount (PerkinElmer). The GF/C filter plate used had been immersed in 0.3% polyethyleneimine for one day.
The specific binding level is shown by a value obtained by subtracting non-specific binding level from the total binding level. The binding inhibitory activity of the test compound is shown by a ratio of the value obtained by subtracting the measurement value with addition of a test compound from the total binding level, to the value of the specific binding level.

[3] = biological target: human NK3 (hNK3) receptor (Homo sapiens (Human), UniProt P29371); experiment: Human NK3 receptor binding assay: radioligand ([125I]-NK-B) binding inhibition using membrane fraction of CHO cells expressing hNK3 receptor; conditions: CHO cell membrane fraction
human NK3 (hNK3) receptor, sequence (P29371 whole entry): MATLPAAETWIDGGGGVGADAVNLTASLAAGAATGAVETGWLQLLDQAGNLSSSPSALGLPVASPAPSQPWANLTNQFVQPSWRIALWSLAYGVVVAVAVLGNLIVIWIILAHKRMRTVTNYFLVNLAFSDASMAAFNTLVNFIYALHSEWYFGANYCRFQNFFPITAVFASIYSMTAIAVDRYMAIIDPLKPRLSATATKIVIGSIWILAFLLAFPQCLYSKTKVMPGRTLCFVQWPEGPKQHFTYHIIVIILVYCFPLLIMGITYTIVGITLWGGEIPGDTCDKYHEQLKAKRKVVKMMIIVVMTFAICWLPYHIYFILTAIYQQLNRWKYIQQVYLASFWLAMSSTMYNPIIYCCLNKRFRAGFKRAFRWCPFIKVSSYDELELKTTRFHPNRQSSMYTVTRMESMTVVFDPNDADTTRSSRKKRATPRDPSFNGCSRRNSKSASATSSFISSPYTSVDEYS
Experimental: CHO cells expressing hNK3 receptor were cultured in a MEMα medium (Nikken Seibutsu Igaku Kenkyusho, K.K.) containing 100 U/mL penicillin, 100 μg/mL streptomycin and 10% inactivated dialyzed serum. The medium was removed, the adhered cells were washed with PBS, and PBS containing 5 mM EDTA was added to detach the cells from the flask. The cells were collected by centrifugation, suspended in suspension buffer A (50 mM Tris-HCl (pH 7.4) containing 120 mM NaCl, 5 mM KCl, 2 μg/mL chymostatin, 40 μg/mL bacitracin, 40 μg/mL APMSF, 1 mM EDTA), disrupted by a Polytron homogenizer (Kinematika), and centrifuged at 800×g for 10 min. The supernatant was recovered and ultracentrifuged at 100,000×g for 25 min. The precipitation fraction was suspended in suspension buffer B (50 mM Tris-HCl (pH 7.4), 0.02% bovine serum albumin, 2 μg/mL chymostatin, 40 μg/mL bacitracin, 40 μg/mL APMSF, 3 mM MnCl2), and cryopreserved (−80° C.) as a receptor reference standard. […]
After reaction at 25° C. for 30 min, the reaction was quenched using a cell harvester (PerkinElmer) by rapid filtration on a GF/C filter plate, and the cells were washed 5 times with 250 μL of a 50 mM Tris-HCl buffer (pH 7.4) containing 0.02% bovine serum albumin. The GF/C filter plate was dried, MicroScinti-0 (Perkin Elmer) was added by 20 μL, and the radioactivity was measured on a TopCount (PerkinElmer). […]

human NK2 (hNK2) receptor, sequence (P21452 whole entry): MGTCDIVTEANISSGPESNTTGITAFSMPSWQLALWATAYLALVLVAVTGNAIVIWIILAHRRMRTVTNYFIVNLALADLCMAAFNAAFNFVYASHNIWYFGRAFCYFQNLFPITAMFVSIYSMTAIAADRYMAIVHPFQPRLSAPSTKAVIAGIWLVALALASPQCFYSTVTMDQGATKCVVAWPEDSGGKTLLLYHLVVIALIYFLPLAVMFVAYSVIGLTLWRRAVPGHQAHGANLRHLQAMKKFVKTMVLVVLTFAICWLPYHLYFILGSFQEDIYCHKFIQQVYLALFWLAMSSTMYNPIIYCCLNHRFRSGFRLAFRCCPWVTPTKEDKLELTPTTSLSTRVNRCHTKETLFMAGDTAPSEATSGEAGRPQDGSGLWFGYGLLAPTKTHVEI
human NK1 receptor, sequence (P25103 whole entry): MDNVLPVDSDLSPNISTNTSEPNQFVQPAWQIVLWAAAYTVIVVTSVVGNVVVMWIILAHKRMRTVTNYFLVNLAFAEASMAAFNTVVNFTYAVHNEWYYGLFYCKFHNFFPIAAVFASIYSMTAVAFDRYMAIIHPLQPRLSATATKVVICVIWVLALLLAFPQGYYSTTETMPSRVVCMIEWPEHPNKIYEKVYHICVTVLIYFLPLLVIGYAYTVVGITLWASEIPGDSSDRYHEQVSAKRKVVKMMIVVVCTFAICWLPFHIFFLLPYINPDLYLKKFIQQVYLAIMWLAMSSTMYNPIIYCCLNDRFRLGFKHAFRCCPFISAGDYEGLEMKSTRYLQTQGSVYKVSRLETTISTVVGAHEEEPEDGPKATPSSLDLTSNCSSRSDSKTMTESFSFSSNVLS

Structure (SMILES): CC(=O)N1CCC(C(=O)N2CC[C@@H](N(C)C(=O)c3ccc(Br)cn3)[C@H](c3ccc(Cl)c(Cl)c3)C2)CC1
- melting point: 128 to 130 °C

Structure (SMILES): CC(=O)N1CCC(C(=O)N2CC[C@@H](N(C)C(=O)c3ccc(Cl)cc3)[C@H](c3ccc(Cl)c(Cl)c3)C2)CC1.O (hydrate or solvate)
- melting point: 113 to 115 °C

Structure (SMILES): COc1ccc(C(=O)N(C)[C@@H]2CCN(C(=O)C3CCN(C(C)=O)CC3)C[C@H]2c2ccc(Cl)c(Cl)c2)cc1
- melting point: 134 to 136 °C

Structure (SMILES): CC(=O)N1CCC(C(=O)N2CC[C@@H](N(C)C(=O)c3ccc(N4CCOCC4)cc3)[C@H](c3ccc(Cl)c(Cl)c3)C2)CC1.O (hydrate or solvate) [Example 268, N-[(3R,4R)-1-[(1-acetylpiperidin-4-yl)carbonyl]-3-(3,4-dichlorophenyl)piperidin-4-yl]-N-methyl-4-morpholin-4-ylbenzamide monohydrate]
- melting point: 136 to 139 °C

Structure (SMILES): CC(=O)N1CCC(C(=O)N2CC[C@@H](N(C)C(=O)c3ccc(-c4ccccc4)cc3)[C@H](c3ccc(Cl)c(Cl)c3)C2)CC1 (racemic) [Example 31, N-[(3R*,4R*)-1-[(1-acetylpiperidin-4-yl)carbonyl]-3-(3,4-dichlorophenyl)piperidin-4-yl]-N-methylbiphenyl-4-carboxamide]
- IC50 ([1]; radioligand binding inhibition, IM-9 cell receptor, read-out: hNK1 IC50): 410 nM
- IC50 [2]: 1.7 nM
- IC50 [3]: 160 nM

Structure (SMILES): CN(C(=O)c1ccc(Br)cc1)[C@@H]1CCN(C(=O)C2CCN(C(=O)CO)CC2)C[C@H]1c1ccc(Cl)c(Cl)c1.O (hydrate or solvate)
- melting point: 130 to 132 °C

Structure (SMILES): CN(C(=O)c1ccc(Cl)cc1)[C@@H]1CCN(C(=O)Nc2ccc(F)nc2)C[C@H]1c1ccc(Cl)c(Cl)c1 [Example 516, (3R,4R)-4-{[(4-chlorophenyl)carbonyl](methyl)amino}-3-(3,4-dichlorophenyl)-N-(6-fluoropyridin-3-yl)piperidine-1-carboxamide]
- melting point: 156 to 158 °C

Structure (SMILES): CC(=O)N1CCC(C(=O)N2C[C@@H](N(C)C(=O)c3cc(C(F)(F)F)cc(C(F)(F)F)c3)[C@H](c3ccc(Cl)c(Cl)c3)C2)CC1 (racemic) [Example 82, N-[(3S*,4R*)-1-[(1-acetylpiperidin-4-yl)carbonyl]-4-(3,4-dichlorophenyl)pyrrolidin-3-yl]-N-methyl-3,5-bis(trifluoromethyl)benzamide]
- IC50 [2]: 2.2 nM

Structure (SMILES): CN(C(=O)c1ccc(Cl)cc1)[C@@H]1CCN(C(=O)C2CCN(C(=O)CO)CC2)C[C@H]1c1ccc(Cl)c(Cl)c1.O (hydrate or solvate)
- melting point: 128 to 131 °C

Structure (SMILES): CC(=O)N1CCC(C(=O)N2CC[C@@H](N(C)C(=O)c3ccc(N4CCOCC4)cc3)[C@H](c3ccc(Cl)c(Cl)c3)C2)CC1.O [Example 268, N-[(3R,4R)-1-[(1-acetylpiperidin-4-yl)carbonyl]-3-(3,4-dichlorophenyl)piperidin-4-yl]-N-methyl-4-morpholin-4-ylbenzamide monohydrate]
- hNK1 % inh. (10 μM) ([1]; 10 μM): 58.2% inh.
- IC50 [2]: 0.42 nM

Structure (SMILES): CN(C(=O)c1ccc(C(F)(F)F)cc1)[C@@H]1CCN(C(=O)C2CCN(C(=O)CO)CC2)C[C@H]1c1ccc(Cl)c(Cl)c1.O (hydrate or solvate)
- melting point: 124 to 127 °C
